A short description of experiment [1]: cytotoxicity toward Colo320 cells – cell-based, CellTiter-Glo luminescence, IC50, dose response (AID 1117334). The class given is functional. As to conditions: COLO 320. In general terms: ATP-based viability assays read luminescence as a measure of living cells.
Experiment [2] in a line: HCT116 cell viability decrease, GSK3B pretreatment – CellTiter-Glo, IC50, dose response (AID 1117339). The class given is functional. As to conditions: HCT-116.
Experiment [3] is described as follows: rise of 2N DNA cells, HeLa – IC50, dose response (AID 1117349). In kind it is functional, cell-based.
The nature of experiment [4]: RKO cell viability reduction, dose response, CellTiter-Glo luminescence (AID 1117322). The class given is functional.
Experiment [5] is described as follows: rise of 4N DNA cells, HeLa – IC50, dose response (AID 1117351). The class given is functional, cell-based.
A short description of experiment [6]: SNU-C1 cell viability reduction, dose response, CellTiter-Glo luminescence (AID 1117323). The class given is functional, cell-based.
Experiment [7] can be described thus: cytotoxicity toward HT-29 cells – cell-based, CellTiter-Glo luminescence, IC50, dose response (AID 1117330). In kind it is functional.
A short description of experiment [8]: CellTiter-Glo luminescence survival assay, SW480 colon tumor line, concentration-response curve, half-maximal inhibitory concentration (AID 1117338). In kind it is functional.
Experiment [9] can be described thus: Reduced DLD-1 viability, concentration-response, CellTiter-Glo luminescence (AID 1117352). In kind it is functional.
The nature of experiment [10]: cytotoxicity toward HCT116 cells – cell-based, CellTiter-Glo luminescence, IC50, dose response (AID 1117332). As to conditions: HCT-116. In kind it is functional.
Experiment [11] deals with T1, Fatty acid synthase (Homo sapiens, UniProt P49327). Description: inhibition of human FAS-TE enzyme activity – biochemical, kinetic fluorescence intensity, dose response (AID 624326).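 Also: rate of fluorescence rise from hydrolysis of a fluorogenic O-methyl fluorescein ester substrate.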 In kind it is functional.
T1 sequence (P49327 whole entry, the tested form may be a part): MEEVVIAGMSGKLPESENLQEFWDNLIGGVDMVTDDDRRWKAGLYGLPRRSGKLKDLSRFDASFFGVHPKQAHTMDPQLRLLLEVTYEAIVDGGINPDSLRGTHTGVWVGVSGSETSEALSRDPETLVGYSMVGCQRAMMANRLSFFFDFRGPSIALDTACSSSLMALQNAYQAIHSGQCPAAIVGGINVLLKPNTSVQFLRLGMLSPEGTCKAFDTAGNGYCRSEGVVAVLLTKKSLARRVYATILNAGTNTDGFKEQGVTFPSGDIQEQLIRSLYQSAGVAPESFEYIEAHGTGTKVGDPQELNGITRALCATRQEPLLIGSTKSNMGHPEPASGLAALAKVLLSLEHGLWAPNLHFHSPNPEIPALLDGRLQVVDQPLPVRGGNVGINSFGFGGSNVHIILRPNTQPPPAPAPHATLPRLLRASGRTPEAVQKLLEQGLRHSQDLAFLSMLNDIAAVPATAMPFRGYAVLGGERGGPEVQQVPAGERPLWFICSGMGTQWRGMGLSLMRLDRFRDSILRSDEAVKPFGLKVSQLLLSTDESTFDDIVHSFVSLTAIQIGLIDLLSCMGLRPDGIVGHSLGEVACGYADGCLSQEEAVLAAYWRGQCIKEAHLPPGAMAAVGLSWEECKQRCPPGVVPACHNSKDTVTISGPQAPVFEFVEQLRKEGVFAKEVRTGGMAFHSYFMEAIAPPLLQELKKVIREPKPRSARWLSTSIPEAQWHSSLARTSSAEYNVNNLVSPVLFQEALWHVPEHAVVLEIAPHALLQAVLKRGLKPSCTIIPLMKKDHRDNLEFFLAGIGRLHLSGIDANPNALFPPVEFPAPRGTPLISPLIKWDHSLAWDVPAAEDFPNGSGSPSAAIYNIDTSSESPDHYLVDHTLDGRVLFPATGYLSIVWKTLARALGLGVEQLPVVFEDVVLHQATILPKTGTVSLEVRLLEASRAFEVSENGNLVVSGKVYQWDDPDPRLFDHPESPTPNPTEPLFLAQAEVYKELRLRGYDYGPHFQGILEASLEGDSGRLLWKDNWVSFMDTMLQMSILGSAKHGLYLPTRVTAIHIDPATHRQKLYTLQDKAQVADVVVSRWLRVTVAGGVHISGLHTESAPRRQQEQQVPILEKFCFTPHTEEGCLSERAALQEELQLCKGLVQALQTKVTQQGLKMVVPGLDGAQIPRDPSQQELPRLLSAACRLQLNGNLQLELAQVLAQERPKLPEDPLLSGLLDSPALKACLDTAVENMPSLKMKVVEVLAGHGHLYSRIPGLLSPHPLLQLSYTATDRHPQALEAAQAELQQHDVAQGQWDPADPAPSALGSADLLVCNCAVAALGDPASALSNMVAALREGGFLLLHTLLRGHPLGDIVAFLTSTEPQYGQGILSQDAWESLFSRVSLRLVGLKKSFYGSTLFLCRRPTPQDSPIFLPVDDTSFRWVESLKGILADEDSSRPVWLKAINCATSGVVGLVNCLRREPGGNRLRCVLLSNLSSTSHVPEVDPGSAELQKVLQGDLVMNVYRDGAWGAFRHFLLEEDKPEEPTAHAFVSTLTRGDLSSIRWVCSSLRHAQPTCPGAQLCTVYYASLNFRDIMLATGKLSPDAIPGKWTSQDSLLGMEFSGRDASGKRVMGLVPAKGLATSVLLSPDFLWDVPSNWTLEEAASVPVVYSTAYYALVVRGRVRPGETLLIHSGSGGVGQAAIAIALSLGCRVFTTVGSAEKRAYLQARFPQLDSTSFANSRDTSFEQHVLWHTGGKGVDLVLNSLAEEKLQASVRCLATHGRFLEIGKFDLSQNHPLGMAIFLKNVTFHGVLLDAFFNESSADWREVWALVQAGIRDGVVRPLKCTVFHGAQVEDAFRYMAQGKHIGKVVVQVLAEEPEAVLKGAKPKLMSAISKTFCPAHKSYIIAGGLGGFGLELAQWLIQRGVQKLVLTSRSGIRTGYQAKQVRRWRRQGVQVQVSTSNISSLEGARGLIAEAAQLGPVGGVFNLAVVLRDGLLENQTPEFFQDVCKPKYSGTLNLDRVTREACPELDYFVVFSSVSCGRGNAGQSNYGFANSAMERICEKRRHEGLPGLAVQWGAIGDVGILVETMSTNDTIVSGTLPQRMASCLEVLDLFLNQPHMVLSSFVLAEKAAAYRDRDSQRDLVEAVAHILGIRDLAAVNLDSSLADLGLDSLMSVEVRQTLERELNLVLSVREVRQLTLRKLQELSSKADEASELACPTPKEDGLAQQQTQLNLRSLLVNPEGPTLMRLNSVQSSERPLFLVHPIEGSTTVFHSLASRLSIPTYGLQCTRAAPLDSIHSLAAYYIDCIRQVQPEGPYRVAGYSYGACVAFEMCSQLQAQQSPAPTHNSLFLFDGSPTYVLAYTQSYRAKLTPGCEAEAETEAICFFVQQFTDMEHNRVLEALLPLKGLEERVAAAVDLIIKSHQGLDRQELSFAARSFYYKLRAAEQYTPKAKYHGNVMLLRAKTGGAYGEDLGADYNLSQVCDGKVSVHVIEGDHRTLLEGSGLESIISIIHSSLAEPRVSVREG
The target of experiment [12] is T2, Fibrinogen beta chain (Homo sapiens, UniProt P02675). Briefly: Fluorescence polarization-based biochemical high throughput dose response assay to identify inhibitors that disrupt the binding of a cyclic peptide (Tn6) to the fibrin proteolytic product D-Dimer and fragment E complex [DD(E )].
T2 sequence (P02675 whole entry, the tested form may be a part): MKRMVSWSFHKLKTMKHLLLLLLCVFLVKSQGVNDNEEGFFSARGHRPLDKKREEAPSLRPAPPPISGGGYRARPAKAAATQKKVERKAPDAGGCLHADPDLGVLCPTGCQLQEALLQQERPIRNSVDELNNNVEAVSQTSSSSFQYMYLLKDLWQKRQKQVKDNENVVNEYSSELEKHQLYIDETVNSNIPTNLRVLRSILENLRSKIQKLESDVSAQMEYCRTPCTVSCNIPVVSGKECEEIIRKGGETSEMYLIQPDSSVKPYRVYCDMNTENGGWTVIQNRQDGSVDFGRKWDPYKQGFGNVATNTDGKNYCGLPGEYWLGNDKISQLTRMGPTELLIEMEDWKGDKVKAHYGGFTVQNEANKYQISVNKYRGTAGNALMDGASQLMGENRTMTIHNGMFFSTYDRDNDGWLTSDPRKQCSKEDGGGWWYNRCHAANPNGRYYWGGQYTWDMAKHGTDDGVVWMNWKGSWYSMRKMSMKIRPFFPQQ
Experiment [13] addresses T3, Neuropeptide Y receptor type 2 (Homo sapiens, UniProt P49146).
T3 sequence (P49146 whole entry): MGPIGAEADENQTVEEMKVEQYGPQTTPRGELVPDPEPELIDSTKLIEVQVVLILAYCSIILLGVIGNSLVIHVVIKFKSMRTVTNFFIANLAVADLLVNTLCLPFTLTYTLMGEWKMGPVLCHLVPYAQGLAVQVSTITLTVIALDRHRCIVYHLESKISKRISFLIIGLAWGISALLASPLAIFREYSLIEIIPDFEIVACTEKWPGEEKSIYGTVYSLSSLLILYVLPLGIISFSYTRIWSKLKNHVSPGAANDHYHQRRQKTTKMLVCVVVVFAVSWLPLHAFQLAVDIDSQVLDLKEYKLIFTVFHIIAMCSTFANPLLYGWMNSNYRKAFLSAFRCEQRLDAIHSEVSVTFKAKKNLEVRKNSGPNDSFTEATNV
In kind it is functional, cell-based.

In experiment [14] the target is T4, Neuropeptide Y receptor type 1 (Homo sapiens, UniProt P25929).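 Also: HEK293 cells with a CNG channel challenged with NPY then isoproterenol; potency as antagonist that reverses NPY suppression of cAMP signal.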
T4 sequence (P25929 whole entry): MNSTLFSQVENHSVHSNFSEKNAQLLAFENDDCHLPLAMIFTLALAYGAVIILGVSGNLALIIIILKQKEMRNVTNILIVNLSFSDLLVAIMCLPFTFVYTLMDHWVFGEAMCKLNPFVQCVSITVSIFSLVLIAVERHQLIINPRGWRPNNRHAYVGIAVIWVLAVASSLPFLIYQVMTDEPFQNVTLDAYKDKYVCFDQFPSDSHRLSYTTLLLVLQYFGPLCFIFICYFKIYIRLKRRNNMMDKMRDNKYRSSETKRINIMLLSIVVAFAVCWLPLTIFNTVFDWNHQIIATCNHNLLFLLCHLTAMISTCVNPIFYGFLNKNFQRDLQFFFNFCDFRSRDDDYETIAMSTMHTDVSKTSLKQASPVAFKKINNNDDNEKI
In kind it is functional.

For experiment [15], the target named is T2, Fibrinogen beta chain. Briefly: Fluorescence polarization-based biochemical high throughput dose response assay to identify inhibitors that disrupt the binding of a cyclic peptide (Tn7) to the fibrin proteolytic product D-Dimer and fragment E complex [DD(E )]. (In general: Fluorescence polarisation rises when a labelled molecule tumbles more slowly, as on binding a larger partner.)

In experiment [16] the target is T1, Fatty acid synthase. Description: inhibition of human FAS-TE enzyme activity – biochemical, endpoint fluorescence intensity, uHTS hits, dose response (AID 624327).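 Also: fluorescence from hydrolysis of an O-methyl fluorescein acyl ester substrate by the enzyme.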 In kind it is functional.
Experiment [17] is described as follows: Dd2 parasite growth inhibition in erythrocytes – SYBR Green, dry powder samples, set 9, dose response (AID 1159568). The class given is functional, cell-based.
The target in the next experiment is Protein Tat (Human immunodeficiency virus type 1 group M subtype B (isolate HXB2)(HIV-1), UniProt P04608). The class given is functional.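 Also: tat binding to TAR RNA read out by fluorescence polarization.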
Protein Tat, sequence (P04608 whole entry): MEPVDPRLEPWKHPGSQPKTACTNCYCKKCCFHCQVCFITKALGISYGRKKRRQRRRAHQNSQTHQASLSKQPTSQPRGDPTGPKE
The nature of experiment [18]: HIV-1 Vif–A3G interaction blockers – biochemical, TR-FRET, GST-Vif 1-94, biotin-A3G peptide, dose response retest, primary screen (AID 1117319).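 Also: TR-FRET signal of purified GST-Vif binding a biotinylated A3G peptide; inhibitors lower the FRET signal by blocking Vif and A3G binding.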 In kind it is functional. For orientation: Time-resolved FRET reads energy transfer from a long-lived donor to a nearby acceptor.
Another experiment addresses T5, Coagulation factor XII (Homo sapiens, UniProt P00748).
T5 sequence (P00748 whole entry): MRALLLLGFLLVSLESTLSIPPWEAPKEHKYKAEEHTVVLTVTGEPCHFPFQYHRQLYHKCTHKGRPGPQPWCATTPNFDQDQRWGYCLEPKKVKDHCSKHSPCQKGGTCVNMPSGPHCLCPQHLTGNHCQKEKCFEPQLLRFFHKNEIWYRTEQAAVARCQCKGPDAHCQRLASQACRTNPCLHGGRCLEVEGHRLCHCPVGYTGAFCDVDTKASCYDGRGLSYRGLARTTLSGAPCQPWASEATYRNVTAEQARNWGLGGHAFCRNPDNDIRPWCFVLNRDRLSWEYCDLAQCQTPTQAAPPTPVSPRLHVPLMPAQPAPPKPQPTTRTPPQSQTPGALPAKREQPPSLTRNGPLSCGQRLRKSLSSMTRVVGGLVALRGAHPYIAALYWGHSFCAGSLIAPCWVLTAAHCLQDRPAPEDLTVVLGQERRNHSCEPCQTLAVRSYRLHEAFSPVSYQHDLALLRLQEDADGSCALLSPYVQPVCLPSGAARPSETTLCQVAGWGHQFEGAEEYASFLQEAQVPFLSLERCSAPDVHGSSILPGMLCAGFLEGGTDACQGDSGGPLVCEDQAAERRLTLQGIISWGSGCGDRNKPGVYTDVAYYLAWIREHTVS
In kind it is functional.

In experiment [19] the target is Mitogen-activated protein kinase 10 (Homo sapiens, UniProt P53779). Description: Dose response biochemical screening assay for inhibitors of c-Jun N-Terminal Kinase 3 (JNK3). [Related pubchem assays: 746 ].
Mitogen-activated protein kinase 10, sequence (P53779 whole entry): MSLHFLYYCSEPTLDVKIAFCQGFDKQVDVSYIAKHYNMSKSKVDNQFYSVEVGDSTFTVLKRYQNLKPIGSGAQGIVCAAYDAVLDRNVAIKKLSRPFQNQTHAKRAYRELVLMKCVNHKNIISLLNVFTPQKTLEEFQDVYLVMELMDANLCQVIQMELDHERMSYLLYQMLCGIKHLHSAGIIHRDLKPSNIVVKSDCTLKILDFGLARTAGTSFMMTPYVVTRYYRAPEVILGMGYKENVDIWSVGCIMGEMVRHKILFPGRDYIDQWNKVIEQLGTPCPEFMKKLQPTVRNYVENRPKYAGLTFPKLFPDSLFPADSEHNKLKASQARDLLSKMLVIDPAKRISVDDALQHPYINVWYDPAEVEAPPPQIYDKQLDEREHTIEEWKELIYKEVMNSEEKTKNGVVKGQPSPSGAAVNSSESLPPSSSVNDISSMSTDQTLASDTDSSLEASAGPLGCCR

Experimental findings from ChEMBL document CHEMBL1201862, “PubChem BioAssay data set” (2004) are described below.

Structures are written as SMILES. Active and inactive are the calls of the source.

A word on the IC50: it is the concentration at which inhibition is half-maximal. On to `O=C(NOCC1CC1)c1ccc(F)c(F)c1Nc1ccc(I)cc1Cl` [CI-1040], for which the IC50 was 0.848 µM (active) in [1]; 0.969 µM (active) in experiment [2]; > 10 µM (inactive) in experiment [3]; 0.00319 µM (active) in [4]; > 10 µM (inactive) in [5]; 0.0171 µM (active) in [6]. For the same compound, the IC50 in [7] is 0.0263 µM (active); in [8] it was 0.00495 µM (active); in experiment [9] it was 2.16 µM (active); in experiment [10], 0.00179 µM (active).

As for `O=C(Nc1ccc(Cl)cc1)c1csc(-c2ccccc2)n1`, the IC50 on Fatty acid synthase [11] was 13.5 µM (active); at Fibrinogen beta chain [12], > 83.3 µM (inactive); in experiment [13] it was 10.1 µM (not active); in experiment [14] it was 6.94 µM (active); at Fibrinogen beta chain [15], > 83.3 µM (inactive); on Fatty acid synthase [16], 12.3 µM (active).

Broadly, the AC50 is the concentration at which the activity in the assay is half-maximal. Take `C[C@H](CO)N1C[C@H](C)[C@@H](CN(C)C(=O)Nc2ccc(C(F)(F)F)cc2)Oc2c(NC(=O)c3ccc(-c4nccs4)cc3)cccc2C1=O`: the AC50 in experiment [17] is 6.41 µM (active).

As to `CCOC(=O)c1cc(NC(=O)N2CCCc3ccccc32)c(C)nc1C`, the IC50 (on Protein Tat; in experiment [18]) was > 100 µM (active) in each case.

Turning to `NC(=O)c1c(NC(=O)C2CCCO2)sc2c1CCC2` (stereo unspecified), the IC50 at Coagulation factor XII is > 50 µM (inactive); in experiment [19], 42.5 µM (not active).
